1 substance from patent publication US8236761B2, “C-Met receptor regulation by angiotensin IV (AT4) receptor ligands” (Washington State University Research Foundation, priority 2006, dated 2012) can be followed below.

Non-standard residues stand in square brackets, D forms with d. No end group written: not given here. Nle = CCCC[C@H](N)C(=O)O

Data set [1] has as its system MDCK cells. In words: HGF-induced MDCK cell scattering (coverslip assay). It is filed as cell-based, canine. On the procedure:
FIG. 8A: Confluent MDCK cells on coverslips were treated with HGF (110 pM), or HGF (110 pM)+Norleual (100 pM) for 48 hours. Digital images of top, bottom, left, and right sectors were acquired and the scattering of cells In each digital image was scored in blinded fashion and normalized to control scores. The difference between HGF and HGF+Norleual groups was significant (*p=0.0245, n=3). Error bars indicate±SEM. FIG. 8B: MDCK cells were plated on 6 mm diameter coverslips in DMEM 10% FBS and grown to 100% confluency. The coverslips were then transferred to fresh 6 well plates and the cells were serum-deprived for 24 hours to synchronize the cells in the same growth state. Thereafter, the 20 ng/ml of HGF alone and in the presence of 10^−10 M Norleual in a 1% FBS DMEM was added to the cells. […] This ring was photographed and loaded on to NIH image J. Using NIH image J, the pixel count was determined for each ring. […]
Scattering assay. […] Scattering was scored in blinded fashion by comparison to a set of calibration scattering images by two investigators. […]
To explore the physiological significance of the angiotensin-like factor Norleual's ability to depress c-Met signaling, Norleual's effect on HGF induced cell scattering of Madin-Darby canine kidney (MDCK) cells was assessed with the coverslip assay (Miao et al., 2003 J. Cell Biol. 162: 1281-1292). […]

In data set [2] the test system is MDCK cells. Put plainly: c-Met/HGF stimulated MDCK cell proliferation (MTT). It is filed as cell-based, canine. As to conditions: HGF 10 ng/ml, COMPOUND 2 10^−6M to 10^−14M, four days. How it is done:
Thereafter, 10 ng/ml of HGF alone and with the indicated concentrations of Norleual in a 1% FBS DMEM were added to the cells. The cells were cultured under these conditions for four days. On the fourth day, the treatment media was aspirated and replaced with 5 mg/ml of MTT reagent in 0.1 M glycine buffer (Invitrogen). The MTT reagent was incubated with the cells for four hours at 37° C. before adding DMSO to solubilize the cells and record the MTT absorbance on a plate reader. The controls were treated as background and subtracted from all of the treatments to determine the increase in proliferation due solely to HGF treatment. Differences between the treatments were determined using one-way ANOVA with Bonferroni's post-hoc analysis (Prism statistical analysis software). * indicate p<0.05 vs. HGF treatment. N=6, mean+/−SEM. […] Madin-Darby Canine Kidney (MDCK) cells were plated in the wells of a 96 well plate in 100 μl of complete Dulbecco's Modified Eagle's Medium (DMEM). The cells were serum starved for 24 hours to induce quiescence. […] Absorbance of the cleaved substrate was quantitated on a Biotek Synergy HT 2 plate reader according to the manufacturer's instructions. […] The data was analyzed with Prism® (GraphPad, San Diego, Calif.) statistical analysis software. * indicates p<0.01 vs. HGF treatment by Tukey's post-hoc analysis. […]

The subject of the next data set is human endothelial cells. Put plainly: Proliferation and migration of human endothelial cells. Type of data set: cell-based.

“Nle-Tyr-Leu-ψ-His-Pro-Phe ([Nle]YLHPF; also: reduced peptide bond psi(CH2NH2) between Leu and His) [Norleual]”: the “HGF-induced MDCK cell scattering” value in the data set on MDCK cells [1] (HGF 110 pM + Norleual 100 pM, 48 hours, FIG. 8A) was “inhibited”. For the same substance, the “Hepatocyte growth factor-dependent cell scattering” value in the data set on MDCK cells [1] (HGF 20 ng/ml, COMPOUND 2 10^−10M, FIG. 7) is on record as “inhibited”. Besides, the “HGF stimulated MDCK cellular proliferation” value in the data set with MDCK cells [2] is on record as “attenuation”; in the data set with MDCK cells [2] (listed as Compound 2), “inhibited”. In addition, the “Proliferation and migration of human endothelial cells” value in the data set with human endothelial cells was “inhibited”.
